What follows are compounds tested on SMN protein in SMA patient fibroblast cells (assay: SMN protein assay in cultured cells (SMN HTRF)). Conditions: concentration producing 1.5 times SMN protein vs vehicle; SMA patient fibroblasts, 48 hours, 7-point curve.
Type: cell-based, human
Description: The term “EC1.5× concentration for SMN protein expression” (or “EC1.5× SMN protein”) is defined as that concentration of test compound that is effective in producing 1.5 times the amount of SMN protein in an SMA patient fibroblast cell compared to the amount produced from the vehicle control.
The SMN HTRF (homogeneous time resolved fluorescence) assay is used to quantify the level of SMN protein in SMA patient fibroblast cells treated with test compounds. Materials used and respective sources are listed below in Table 3.
Cells are thawed and cultured in DMEM-10% FBS for 72 hours. Cells are trypsinized, counted and re-suspended to a concentration of 25,000 cells/mL in DMEM-10% FBS. The cell suspensions are plated at 5,000 cells per well in a 96 well microtiter plate and incubated for 3 to […]. Test compounds are serially diluted 3.16-fold in 100% DMSO to generate a 7-point concentration curve. 1 μL of test compound solution is transferred to cell-containing wells and cells are incubated for 48 hours in a cell culture incubator (37° C., 5% CO2, 100% relative humidity). Triplicate samples are set up for each test compound concentration. After 48 hours, the supernatant is removed from the wells and 25 μL of the RIPA lysis buffer, containing protease inhibitors, is added to the wells and incubated with shaking at room temperature for 1 hour. 25 μL of the diluent is added and then 35 μL of the resulting lysate is transferred to a 384-well plate, where each well contains 5 μL of the antibody solution (1:100 dilution of anti-SMN d2 and anti-SMN kryptate in SMN reconstitution buffer). The plate is centrifuged for 1 minute to bring the solution to the bottom of the wells, then incubated overnight at room temperature. Fluorescence for each well of the plate at 665 nm and 620 nm is measured on an EnVision multilabel plate reader (Perkin-Elmer).
The normalized fluorescence signal is calculated for each sample, Blank and vehicle control well by dividing the signal at 665 nm by the signal at 620 nm. Normalizing the signal accounts for possible fluorescence quenching due to the matrix effect of the lysate. The ΔF value (a measurement of SMN protein abundance as a percent value) for each sample well is calculated by subtracting the normalized average fluorescence for the Blank control wells from the normalized fluorescence for each sample well, then dividing this difference by the normalized average fluorescence for the Blank control wells and multiplying the resulting value by 100. The ΔF value for each sample well represents the SMN protein abundance from test compound-treated samples. The ΔF value for each sample well is divided by the ΔF value for the vehicle control wells to calculate the fold increase in SMN protein abundance relative to the vehicle control. Table 4 provides EC1.5× concentrations for SMN protein expression that was obtained from the 7-point concentration data generated according to the above procedure for particular compounds of the present invention.
Table 5 provides the maximum fold increase of SMN protein that was obtained from the 7-point concentration data generated according to the above procedure for particular compounds of the present invention
In the case of `Cc1cn2nc(-c3cc(=O)n4cc(N5CCN6CCC[C@@]6(C)C5)ccc4n3)cc(C)c2n1` [Example 5, 7-[(8aS)-8a-methyl-1,3,4,6,7,8-hexahydropyrrolo[1,2-a]pyrazin-2-yl]-2-(2,8-dimethylimidazo[1,2-b]pyridazin-6-yl)pyrido[1,2-a]pyrimidin-4-one], the “EC1.5x SMN protein” value was 4.1 nM. For `Cc1cn2nc(-c3cc(=O)n4cc(N5CCN6CCC[C@]6(C)C5)ccc4n3)cc(C)c2n1` [Example 6, 7-[(8aR)-8a-methyl-1,3,4,6,7,8-hexahydropyrrolo[1,2-a]pyrazin-2-yl]-2-(2,8-dimethylimidazo[1,2-b]pyridazin-6-yl)pyrido[1,2-a]pyrimidin-4-one], the “EC1.5x SMN protein” value was 11 nM. `Cc1cn2nc(-c3cc(=O)n4cc(N5CCN[C@@H](C)C5)ccc4n3)cc(C)c2n1` [Example 8, 2-(2,8-dimethylimidazo[1,2-b]pyridazin-6-yl)-7-[(3S)-3-methylpiperazin-1-yl]pyrido[1,2-a]pyrimidin-4-one] was tested, and the “EC1.5x SMN protein” value was 5.9 nM. In the case of `Cc1cn2nc(-c3cc(=O)n4cc(N5CCN[C@H](C)C5)ccc4n3)cc(C)c2n1` [Example 9, 2-(2,8-dimethylimidazo[1,2-b]pyridazin-6-yl)-7-[(3R)-3-methylpiperazin-1-yl]pyrido[1,2-a]pyrimidin-4-one], the “EC1.5x SMN protein” value was 2.5 nM. In the case of `Cc1cn2nc(-c3cc(=O)n4cc(N5CCN[C@@H](C)C5)ccc4n3)ccc2n1` [Example 11, 2-(2-methylimidazo[1,2-b]pyridazin-6-yl)-7-[(3S)-3-methylpiperazin-1-yl]pyrido[1,2-a]pyrimidin-4-one], the “EC1.5x SMN protein” value was 7 nM. In the case of `Cc1cn2nc(-c3cc(=O)n4cc(N5CCN[C@H](C)C5)ccc4n3)ccc2n1` [Example 12, 2-(2-methylimidazo[1,2-b]pyridazin-6-yl)-7-[(3R)-3-methylpiperazin-1-yl]pyrido[1,2-a]pyrimidin-4-one], the “EC1.5x SMN protein” value was 7.5 nM. With `Cc1cn2nc(-c3cc(=O)n4cc(N5CCCNCC5)ccc4n3)ccc2n1` [Example 13, 7-(1,4-diazepan-1-yl)-2-(2-methylimidazo[1,2-b]pyridazin-6-yl)pyrido[1,2-a]pyrimidin-4-one] the “EC1.5x SMN protein” value was 3 nM. For `Cc1cn2nc(-c3cc(=O)n4cc(N5CCN6CCC[C@@]6(C)C5)ccc4n3)ccc2n1` [Example 16, 7-[(8aS)-8a-methyl-1,3,4,6,7,8-hexahydropyrrolo[1,2-a]pyrazin-2-yl]-2-(2-methylimidazo[1,2-b]pyridazin-6-yl)pyrido[1,2-a]pyrimidin-4-one], the “EC1.5x SMN protein” value was 3 nM. `Cc1cn2nc(-c3cc(=O)n4cc(N5CC[C@@H](N6CCCC6)C5)ccc4n3)cc(C)c2n1` [Example 18, 2-(2,8-dimethylimidazo[1,2-b]pyridazin-6-yl)-7-[(3R)-3-pyrrolidin-1-ylpyrrolidin-1-yl]pyrido[1,2-a]pyrimidin-4-one] was tested, and the “EC1.5x SMN protein” value was 25 nM. With `Cc1cn2nc(-c3cc(=O)n4cc(N5CCNC6(CC6)C5)ccc4n3)cc(C)c2n1` [Example 20, 7-(4,7-diazaspiro[2.5]octan-7-yl)-2-(2,8-dimethylimidazo[1,2-b]pyridazin-6-yl)pyrido[1,2-a]pyrimidin-4-one] the “EC1.5x SMN protein” value was 37 nM. For `Cc1cn2nc(-c3cc(=O)n4cc(N5CCN[C@@H](C)C5)cc(C)c4n3)cc(C)c2n1` [Example 24, 2-(2,8-dimethylimidazo[1,2-b]pyridazin-6-yl)-9-methyl-7-[(3S)-3-methylpiperazin-1-yl]pyrido[1,2-a]pyrimidin-4-one], the “EC1.5x SMN protein” value was 4.7 nM. With `Cc1cn2nc(-c3cc(=O)n4cc(N5C[C@H](C)N[C@@H](C)C5)ccc4n3)cc(C)c2n1` [Example 29, 2-(2,8-dimethylimidazo[1,2-b]pyridazin-6-yl)-7-[(3S,5S)-3,5-dimethylpiperazin-1-yl]pyrido[1,2-a]pyrimidin-4-one] the “EC1.5x SMN protein” value was 2.1 nM. In the case of `Cc1cn2nc(-c3cc(=O)n4cc(N5C[C@H](C)N[C@@H](C)C5)ccc4n3)ccc2n1` [Example 32, 7-[(3S,5S)-3,5-dimethylpiperazin-1-yl]-2-(2-methylimidazo[1,2-b]pyridazin-6-yl)pyrido[1,2-a]pyrimidin-4-one], the “EC1.5x SMN protein” value was 4 nM. With `Cc1cn2nc(-c3cc(=O)n4cc(N5CCN[C@@H](C)C5)cc(C)c4n3)ccc2n1` [Example 33, 9-methyl-2-(2-methylimidazo[1,2-b]pyridazin-6-yl)-7-[(3S)-3-methylpiperazin-1-yl]pyrido[1,2-a]pyrimidin-4-one] the “EC1.5x SMN protein” value was 4 nM. `Cc1cn2nc(-c3cc(=O)n4cc(N5CCN[C@H](C)C5)cc(C)c4n3)ccc2n1` [Example 34, 9-methyl-2-(2-methylimidazo[1,2-b]pyridazin-6-yl)-7-[(3R)-3-methylpiperazin-1-yl]pyrido[1,2-a]pyrimidin-4-one] was tested, and the “EC1.5x SMN protein” value was 4.4 nM. In the case of `Cc1cn2nc(-c3cc(=O)n4cc(N5CCNC6(CC6)C5)cc(C)c4n3)ccc2n1` [Example 37, 7-(4,7-diazaspiro[2.5]octan-7-yl)-9-methyl-2-(2-methylimidazo[1,2-b]ipyridazin-6-yl)pyrido[1,2-a]pyrimidin-4-one], the “EC1.5x SMN protein” value was 45 nM. `Cc1cn2nc(-c3cc(=O)n4cc(N5C[C@H](C)N[C@@H](C)C5)cc(C)c4n3)ccc2n1` [Example 38, 7-[(3S,5S)-3,5-dimethylpiperazin-1-yl]-9-methyl-2-(2-methylimidazo[1,2-b]pyridazin-6-yl)pyrido[1,2-a]pyrimidin-4-one] was tested, and the “EC1.5x SMN protein” value was 3.1 nM.

From US20180289713A1, “COMPOUNDS FOR TREATING AMYOTROPHIC LATERAL SCLEROSIS” (Hoffmann-La Roche Inc., priority 2015, published 2018)
